Values of other authors as cited in paper PMC9516332 (Frontiers in Oncology, 2022).
Where two headings read alike, the source gives them in different places.

How the values were obtained:
Details in all cases: cited from earlier work
[1] = molecular target: T1, panel of 255 wild-type kinases (Homo sapiens, UniProt O15111)
T1 sequence (O15111 1-745): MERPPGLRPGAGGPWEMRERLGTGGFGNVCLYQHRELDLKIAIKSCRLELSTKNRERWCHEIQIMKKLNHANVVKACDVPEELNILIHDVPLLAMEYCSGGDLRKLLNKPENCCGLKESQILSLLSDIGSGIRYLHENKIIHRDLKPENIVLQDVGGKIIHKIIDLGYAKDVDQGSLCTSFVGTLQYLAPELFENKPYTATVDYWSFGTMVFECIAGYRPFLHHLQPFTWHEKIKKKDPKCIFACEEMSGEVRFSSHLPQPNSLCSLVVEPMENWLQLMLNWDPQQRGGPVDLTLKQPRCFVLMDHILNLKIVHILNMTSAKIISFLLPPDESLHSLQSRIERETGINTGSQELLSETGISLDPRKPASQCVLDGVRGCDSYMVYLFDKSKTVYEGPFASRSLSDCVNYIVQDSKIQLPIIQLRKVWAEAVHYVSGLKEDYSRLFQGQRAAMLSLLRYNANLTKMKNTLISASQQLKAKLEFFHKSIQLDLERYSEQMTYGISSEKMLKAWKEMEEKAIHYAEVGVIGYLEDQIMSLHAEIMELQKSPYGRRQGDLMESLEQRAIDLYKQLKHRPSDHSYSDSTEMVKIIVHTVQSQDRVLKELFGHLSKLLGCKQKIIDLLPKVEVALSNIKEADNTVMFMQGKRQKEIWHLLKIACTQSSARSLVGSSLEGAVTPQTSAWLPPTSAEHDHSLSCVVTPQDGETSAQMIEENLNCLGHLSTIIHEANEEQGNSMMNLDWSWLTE

[2] = molecular target: panel of 255 wild-type kinases (Homo sapiens, UniProt O94804)
[3] = molecular target: panel of 255 wild-type kinases (Homo sapiens, UniProt P07948)
[4] = molecular target: panel of 255 wild-type kinases (Homo sapiens, UniProt P19784)
[5] = molecular target: panel of 255 wild-type kinases (Homo sapiens, UniProt P41240)
[6] = molecular target: panel of 255 wild-type kinases (Homo sapiens, UniProt Q00526)
[7] = molecular target: panel of 255 wild-type kinases (Homo sapiens, UniProt Q06187)
[8] = molecular target: panel of 255 wild-type kinases (Homo sapiens, UniProt Q13627)
[9] = molecular target: T2, panel of 255 wild-type kinases (Homo sapiens, UniProt Q15139)
T2 sequence (Q15139 1-912): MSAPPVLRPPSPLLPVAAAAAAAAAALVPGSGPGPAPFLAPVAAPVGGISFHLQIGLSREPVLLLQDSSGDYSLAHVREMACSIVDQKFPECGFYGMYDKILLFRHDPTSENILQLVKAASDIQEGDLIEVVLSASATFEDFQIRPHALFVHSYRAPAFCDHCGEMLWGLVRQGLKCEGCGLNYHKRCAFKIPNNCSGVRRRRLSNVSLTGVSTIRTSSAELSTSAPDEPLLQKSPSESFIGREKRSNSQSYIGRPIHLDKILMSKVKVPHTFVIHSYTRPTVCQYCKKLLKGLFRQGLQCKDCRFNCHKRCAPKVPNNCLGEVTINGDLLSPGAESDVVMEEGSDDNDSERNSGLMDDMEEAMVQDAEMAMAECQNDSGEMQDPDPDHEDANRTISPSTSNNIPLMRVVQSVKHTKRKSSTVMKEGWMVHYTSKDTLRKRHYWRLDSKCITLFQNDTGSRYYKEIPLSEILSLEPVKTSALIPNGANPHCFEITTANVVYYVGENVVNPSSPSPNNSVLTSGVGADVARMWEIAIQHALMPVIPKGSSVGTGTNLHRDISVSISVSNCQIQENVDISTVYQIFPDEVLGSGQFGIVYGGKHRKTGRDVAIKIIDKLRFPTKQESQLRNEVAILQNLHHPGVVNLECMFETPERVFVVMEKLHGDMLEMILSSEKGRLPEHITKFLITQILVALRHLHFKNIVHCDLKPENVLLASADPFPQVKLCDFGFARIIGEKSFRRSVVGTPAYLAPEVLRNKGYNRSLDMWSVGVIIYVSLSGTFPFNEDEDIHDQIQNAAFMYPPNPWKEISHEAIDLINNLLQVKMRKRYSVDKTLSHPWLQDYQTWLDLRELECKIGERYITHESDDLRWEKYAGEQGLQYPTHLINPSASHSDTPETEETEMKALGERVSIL

[10] = molecular target: panel of 255 wild-type kinases (Homo sapiens, UniProt Q9UK32)
[11] = molecular target: panel of 255 wild-type kinases (Homo sapiens, UniProt Q9Y6M4)
[12] = kinase IKKα, 1 µmol/L single concentration, ref DOI: 10.1158/1535-7163.MCT-18-0877
[13] = kinase LOK, 1 µmol/L single concentration, ref DOI: 10.1158/1535-7163.MCT-18-0877
[14] = kinase LYNa, 1 µmol/L single concentration, ref DOI: 10.1158/1535-7163.MCT-18-0877
[15] = kinase CK2α2/β, 1 µmol/L single concentration, ref DOI: 10.1158/1535-7163.MCT-18-0877
[16] = kinase CSK, 1 µmol/L single concentration, ref DOI: 10.1158/1535-7163.MCT-18-0877
[17] = CDK3/CycE1 kinase assay, 1 µmol/L single concentration, ref DOI: 10.1158/1535-7163.MCT-18-0877
[18] = BTK kinase assay, 1 µmol/L single concentration, ref DOI: 10.1158/1535-7163.MCT-18-0877
[19] = kinase DYRK1A, 1 µmol/L single concentration, ref DOI: 10.1158/1535-7163.MCT-18-0877
[20] = kinase PKD1, 1 µmol/L single concentration, ref DOI: 10.1158/1535-7163.MCT-18-0877
[21] = kinase RSK4, 1 µmol/L single concentration, ref DOI: 10.1158/1535-7163.MCT-18-0877
[22] = kinase CK1γ3, 1 µmol/L single concentration, ref DOI: 10.1158/1535-7163.MCT-18-0877
[23] = kinase IKKα, 1 µmol/L single concentration, ref DOI: 10.1371/journal.pone.0092146
[24] = kinase LOK, 1 µmol/L single concentration, ref DOI: 10.1371/journal.pone.0092146
[25] = kinase LYNa, 1 µmol/L single concentration, ref DOI: 10.1371/journal.pone.0092146
[26] = kinase CK2α2/β, 1 µmol/L single concentration, ref DOI: 10.1371/journal.pone.0092146
[27] = kinase CSK, 1 µmol/L single concentration, ref DOI: 10.1371/journal.pone.0092146
[28] = CDK3/CycE1 kinase assay, 1 µmol/L single concentration, ref DOI: 10.1371/journal.pone.0092146
[29] = kinase DYRK1A, 1 µmol/L single concentration, ref DOI: 10.1371/journal.pone.0092146
[30] = kinase RSK4, 1 µmol/L single concentration, ref DOI: 10.1371/journal.pone.0092146
[31] = BTK kinase assay, 1 µmol/L single concentration, ref DOI: 10.1371/journal.pone.0092146
[32] = kinase PKD1, 1 µmol/L single concentration, ref DOI: 10.1371/journal.pone.0092146

| Structure (SMILES) | %-inhibition at 1 µmol/L, IKKα [1, 12] [%] | %-inhibition at 1 µmol/L, LOK [2, 13] [%] | %-inhibition at 1 µmol/L, LYNa [3, 14] [%] | %-inhibition at 1 µmol/L, CK2α2/β [4, 15] [%] | %-inhibition at 1 µmol/L, CSK [5, 16] [%] | %-inhibition CDK3/CycE1 [6, 17] [%] | %-inhibition BTK [7, 18] [%] | %-inhibition at 1 µmol/L, DYRK1A [8, 19] [%] | %-inhibition at 1 µmol/L, PKD1 [9, 20] [%] | %-inhibition at 1 µmol/L, RSK4 [10, 21] [%] | %-inhibition at 1 µmol/L, CK1γ3 [11, 22] [%] | %-inhibition at 1 µmol/L, CSK [5, 27] [%] | %-inhibition at 1 µmol/L, DYRK1A [8, 29] [%] | %-inhibition at 1 µmol/L, RSK4 [10, 30] [%] | further results |
| --- | --- | --- | --- | --- | --- | --- | --- | --- | --- | --- | --- | --- | --- | --- | --- |
| CC#CC(=O)N1CCC[C@H]1c1nc(-c2ccc(C(=O)Nc3ccccn3)cc2)c2c(N)nccn12 [acalabrutinib] | -1.45 | 3.37 | 2 | 10 | 7 | -6 | 95 | -4.57 | -9.48 | 4.21 | -15 |  |  |  |  |
| CCc1cc2c(cc1N1CCC(N3CCOCC3)CC1)C(C)(C)c1[nH]c3cc(C#N)ccc3c1C2=O [alectinib] | -0.856 |  | 32 | -3 | 6 | -2.74 | 4.39 | 4 | 2 | 19 | 0.159 |  |  |  |  |
| COc1cc(N2CCC(N3CCN(C)CC3)CC2)ccc1Nc1ncc(Cl)c(Nc2ccccc2P(C)(C)=O)n1 [brigatinib] |  |  |  |  |  |  |  |  |  |  |  |  |  |  | %-inhibition at 1 µmol/L, IKKα [1]: -0.856%; %-inhibition at 1 µmol/L, LOK [2]: 96%; %-inhibition at 1 µmol/L, LYNa [3]: 51%; %-inhibition at 1 µmol/L, CK2α2/β [4]: -4%; %-inhibition at 1 µmol/L, CSK [5]: 9%; %-inhibition CDK3/CycE1 [6]: 0.848%; %-inhibition BTK [7]: 54%; %-inhibition at 1 µmol/L, DYRK1A [8]: 38%; %-inhibition at 1 µmol/L, PKD1 [9]: 74%; %-inhibition at 1 µmol/L, RSK4 [10]: 98%; %-inhibition at 1 µmol/L, CK1γ3 [11]: 0.829% |
| C[C@@H](Oc1cc(-c2cnn(C3CCNCC3)c2)cnc1N)c1c(Cl)ccc(F)c1Cl [crizotinib] |  |  |  |  |  |  |  |  |  |  |  | 9 | -13 | -1.58 | %-inhibition at 1 µmol/L, IKKα [1, 23]: -1.78%; %-inhibition at 1 µmol/L, LOK [2, 24]: 98%; %-inhibition at 1 µmol/L, LYNa [3, 25]: 42%; %-inhibition at 1 µmol/L, CK2α2/β [4, 26]: -10%; %-inhibition CDK3/CycE1 [6, 28]: -5.68%; %-inhibition at 1 µmol/L, CK1γ3 ([11]; kinase CK1γ3, 1 µmol/L single concentration, ref DOI: 10.1371/journal.pone.0092146): 4% |
| CC(C)(C)c1nc(-c2cccc(NS(=O)(=O)c3c(F)cccc3F)c2F)c(-c2ccnc(N)n2)s1 [dabrafenib] |  |  |  |  |  |  |  |  |  |  |  | 98 | 16 | 2.2 | %-inhibition BTK [7, 31]: 60%; %-inhibition at 1 µmol/L, PKD1 [9, 32]: 83% |
| C=CC(=O)N1CCC[C@@H](n2nc(-c3ccc(Oc4ccccc4)cc3)c3c(N)ncnc32)C1 [ibrutinib] | 4.34 | 24 | 99 | -7 |  | 0.486 |  | -3.54 | 3.22 | 5.52 | 4 |  |  |  |  |
| CO[C@@H]1[C@H](N(C)C(=O)c2ccccc2)C[C@H]2O[C@]1(C)n1c3ccccc3c3c4c(c5c6ccccc6n2c5c31)C(=O)NC4 [midostaurin] | -0.107 | 98 | 90 | 2 | 58 | 11 | 59 |  |  |  | -1.25 |  |  |  |  |
| CC(=O)Nc1cccc(-n2c(=O)n(C3CC3)c(=O)c3c(Nc4ccc(I)cc4F)n(C)c(=O)c(C)c32)c1 [trametinib] |  |  |  |  |  |  |  |  |  |  |  | -2.83 | -1.23 | 0.208 | %-inhibition at 1 µmol/L, IKKα [1, 23]: 2.63%; %-inhibition at 1 µmol/L, LOK [2, 24]: 12%; %-inhibition at 1 µmol/L, LYNa [3, 25]: -1.74%; %-inhibition at 1 µmol/L, CK2α2/β [4, 26]: -5.29%; %-inhibition CDK3/CycE1 [6, 28]: 0.16%; %-inhibition BTK [7, 31]: 18%; %-inhibition at 1 µmol/L, PKD1 [9, 32]: 9% |
